# Measurements reported in US20180170941A1 (priority 2016, published 2018).
# Target: T1, α5β3γ2 GABAA receptors (Ltk cell membranes) (Homo sapiens, UniProt P18507+P31644)
# T1 construct: membranes
# Assay: Binding activity of test compounds on GABAAR: inhibition of [3H]Ro15-1788 binding
# Conditions: not given
# Protocol: Tissue culture and Membrane Preparation: The binding was performed on Ltk cells stably expressing GABAA receptors: α1β1γ2, α2β3γ2, α3β3γ2 and α5β3γ2 (provided by Merck Co., NJ, USA). Cells were seeded in 100 mm culture plates in DMEM/F12 medium containing 10% serum and antibiotics in 5% CO2 and allowed to grow for 1-2 days. GABAAR expression was then induced by dexamethasone as follows: 0.5 μM for 1 day for α5 containing and 2μM for 3 days for α1, α2 and α3 containing GABAARs. After induction, cells were collected by scraping into Dulbecco's Phosphate buffered saline (DPBS, pH 7.4, Invitrogen, Carlsbad, Calif., USA) and centrifuged at 150×g for 10 min. The pellet was washed twice by re-suspension and centrifugation. The cell pellets from at least 5 different preps were combined, suspended in the binding assay buffer (50 mM KH2P4; 1 mM EDTA; 0.2 M KCl, pH 7.4) and membranes prepared by sonication (3-5 times, 30 sec) using Branson Sonifier 150 (G.Heinmann, Germany). Protein content was determined using BCA assay (Bio-Rad Labs, Reinach, Switzerland) with Bovine Serum Albumin (Sigma Aldrich, St. Louis, Mo., USA) as the standard. Aliquots were prepared and stored at −20° C. for further use in binding assays.
# Ligand Binding: Saturation binding curves were obtained by incubating membranes with increasing concentrations (0.01-8 nM) of [^3H]Ro15-1788 (Flumazepil, 75-85 Ci/mmol, PerkinElmer, MA, USA), with nonspecific binding measured in the presence of 10 μM diazepam.
# All binding assays were performed for 1 h at 4° C. in assay buffer. The total assay volume was 0.5 ml containing 0.2 mg/ml protein for α5 and 0.4 mg/ml for α1, α2, and α3 containing GABAAR membranes. Incubations were terminated by filtration through GF/B filters using a 24-Cell Harvestor (Brandel, Gaithersburg, Md., USA) followed by 3 washes with ice-cold assay buffer. Filters were transferred to scintillation vials, 5 ml scintillation liquid added, vortex-mixed and kept in dark. Next day, radioactivity was obtained using a scintillation counter (Beckman Coulter, Brea, Calif., USA). All assays were performed in triplicate.
# Data Analyses: Saturation and inhibition curves were obtained using GraphPad Prism software (GraphPad Software, Inc., CA, USA).
# T1 sequence (P31644 32-462): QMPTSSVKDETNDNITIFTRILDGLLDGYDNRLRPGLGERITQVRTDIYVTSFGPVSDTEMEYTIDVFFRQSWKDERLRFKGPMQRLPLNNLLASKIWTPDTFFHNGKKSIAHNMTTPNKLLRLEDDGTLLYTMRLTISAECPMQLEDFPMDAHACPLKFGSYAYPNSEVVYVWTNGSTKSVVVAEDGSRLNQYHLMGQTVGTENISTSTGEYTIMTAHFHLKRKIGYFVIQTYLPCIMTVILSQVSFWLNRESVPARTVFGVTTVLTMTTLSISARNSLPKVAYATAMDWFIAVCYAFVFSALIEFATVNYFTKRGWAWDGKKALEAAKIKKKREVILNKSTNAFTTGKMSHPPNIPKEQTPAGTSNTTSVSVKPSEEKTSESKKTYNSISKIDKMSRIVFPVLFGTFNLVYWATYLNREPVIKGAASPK
# T1 sequence (P28472 26-473 partner): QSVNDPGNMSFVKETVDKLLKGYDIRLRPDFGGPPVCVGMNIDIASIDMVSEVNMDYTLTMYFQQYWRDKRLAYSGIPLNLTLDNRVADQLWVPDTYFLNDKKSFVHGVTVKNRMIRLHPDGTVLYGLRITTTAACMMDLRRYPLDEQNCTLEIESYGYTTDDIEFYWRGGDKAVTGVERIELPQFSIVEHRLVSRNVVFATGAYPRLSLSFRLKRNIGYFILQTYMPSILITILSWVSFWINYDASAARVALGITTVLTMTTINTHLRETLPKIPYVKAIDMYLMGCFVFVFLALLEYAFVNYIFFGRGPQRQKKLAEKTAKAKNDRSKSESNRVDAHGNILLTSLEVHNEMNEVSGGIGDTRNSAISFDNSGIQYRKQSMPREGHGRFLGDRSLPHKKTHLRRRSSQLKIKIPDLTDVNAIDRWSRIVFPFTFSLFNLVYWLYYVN
# T1 sequence (P18507 40-475): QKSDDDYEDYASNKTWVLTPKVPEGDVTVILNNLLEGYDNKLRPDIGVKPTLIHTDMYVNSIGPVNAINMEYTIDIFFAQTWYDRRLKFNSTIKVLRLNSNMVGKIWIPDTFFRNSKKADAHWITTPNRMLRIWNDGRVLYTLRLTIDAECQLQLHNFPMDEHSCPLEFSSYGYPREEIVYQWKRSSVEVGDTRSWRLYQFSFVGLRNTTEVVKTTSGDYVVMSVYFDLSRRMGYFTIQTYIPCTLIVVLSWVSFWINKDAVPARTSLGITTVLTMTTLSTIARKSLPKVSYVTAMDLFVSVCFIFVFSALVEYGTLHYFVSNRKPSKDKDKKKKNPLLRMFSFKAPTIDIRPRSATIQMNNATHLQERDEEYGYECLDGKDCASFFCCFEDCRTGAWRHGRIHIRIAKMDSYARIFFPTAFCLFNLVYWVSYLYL
row,Compound,Ki [nM]
1,COc1ccc2c(c1)-c1nnc(COc3ccccc3C(C)(C)C)n1Cc1c(C#N)ncn1-2 [Compound 192],> 1000
2,COc1ccc2c(c1)-c1nnc(COc3ccccc3C(F)(F)F)n1Cc1c(C#N)ncn1-2 [Compound 193],> 1000
3,Clc1ccc2c(c1)-c1nnc(COc3ccccc3)n1Cc1c(C3OCCO3)ncn1-2 [Compound 204],> 1000

# Same assay, conditions: GABA α5 Binding Ki Values, inhibition of [3H]Ro15-1788 binding; reported as ranges
row,Compound,Ki [nM]
1,Cc1nnn2c1Cc1c(-c3ncon3)ncn1-c1ccc(F)cc1-2 [Compound 151],< 100
2,Cc1nnn2c1Cc1c(-c3cnn(C)c3)ncn1-c1ccc(F)cc1-2 [Compound 152],> 1000
3,Cc1nnn2c1Cc1c(C(=O)OC(C)C)ncn1-c1ccccc1-2 [Compound 153],< 100
4,Cc1cc(-c2ncn3c2Cc2c(C)nnn2-c2cc(F)ccc2-3)ccn1 [Compound 154],> 1000
5,CCc1nc(-c2ncn3c2Cc2c(C)nnn2-c2cc(F)ccc2-3)no1 [Compound 155],< 100
6,CC(C)OC(=O)c1ncn2c1Cn1c(COc3ccccc3)nnc1-c1cc(F)ccc1-2 [Compound 156],< 100
7,N#Cc1ncn2c1Cn1c(COc3ccccc3)nnc1-c1cc(F)ccc1-2 [Compound 157],< 100
8,CCc1nc(-c2ncn3c2Cn2c(COc4ccccc4)nnc2-c2cc(F)ccc2-3)no1 [Compound 158],< 100
9,Fc1ccc2c(c1)-c1nnc(COc3ccccc3)n1Cc1c(-c3noc(C(F)(F)F)n3)ncn1-2 [Compound 159],< 100
10,Cc1nnn2c1Cc1c(-c3noc(C(C)(C)C)n3)ncn1-c1ccc(F)cc1-2 [Compound 160],< 100
11,C#Cc1ncn2c1Cc1c(C)nnn1-c1ccccc1-2 [Compound 161],< 100
12,COc1ccc2c(c1)-c1nnc(COc3ccccc3)n1Cc1c(-c3noc(C)n3)ncn1-2 [Compound 162],< 100
13,COc1ccc2c(c1)-c1nnc(COc3ccc(F)cc3)n1Cc1c(-c3noc(C)n3)ncn1-2 [Compound 163],< 100
14,COCc1nnc2n1Cc1c(-c3noc(C)n3)ncn1-c1ccc(OC)cc1-2 [Compound 164],< 100
15,COc1ccc2c(c1)-c1nnc(COCc3ccccc3)n1Cc1c(-c3noc(C)n3)ncn1-2 [Compound 165],< 100
16,COc1ccc2c(c1)-c1nnc(COCc3ccccc3)n1Cc1c(C#N)ncn1-2 [Compound 166],< 100
17,COc1ccc2c(c1)-n1nnc(C)c1Cc1c(-c3nc(C)no3)ncn1-2 [Compound 167],< 100
18,COc1ccc2c(c1)-n1nnc(COc3cccc(F)c3)c1Cc1c(-c3noc(C)n3)ncn1-2 [Compound 168],< 100
19,COCc1nnc2n1Cc1c(-c3noc(C(C)C)n3)ncn1-c1ccc(OC)cc1-2 [Compound 169],< 100
20,COc1ccc2c(c1)-n1nnc(CN3CCCC3)c1Cc1c(-c3nc(C(C)C)no3)ncn1-2 [Compound 170],100 to 1000
21,COc1ccc2c(c1)-c1nnc(COc3ccccc3)n1Cc1c(-c3noc(C(C)C)n3)ncn1-2 [Compound 171],< 100
22,COc1ccc2c(c1)-c1nnc(COc3ccc(F)cc3)n1Cc1c(-c3noc(C(C)C)n3)ncn1-2 [Compound 172],< 100
23,CCOCc1nnc2n1Cc1c(-c3noc(C(C)C)n3)ncn1-c1ccc(OC)cc1-2 [Compound 173],< 100
24,COc1ccc2c(c1)-c1nnc(COc3ccccc3F)n1Cc1c(-c3noc(C(C)C)n3)ncn1-2 [Compound 174],< 100
25,COc1ccc2c(c1)-c1nnc(COc3ccccc3Cl)n1Cc1c(-c3noc(C(C)C)n3)ncn1-2 [Compound 175],< 100
26,COc1ccc2c(c1)-c1nnc(COc3cccnc3)n1Cc1c(-c3noc(C(C)C)n3)ncn1-2 [Compound 176],< 100
27,COc1ccc2c(c1)-c1nnc(COc3cccc4ccccc34)n1Cc1c(-c3noc(C(C)C)n3)ncn1-2 [Compound 177],< 100
28,COc1ccc2c(c1)-c1nnc(COC3CCCC3)n1Cc1c(-c3noc(C(C)C)n3)ncn1-2 [Compound 178],< 100

row,Compound,Ki [nM]
1,COc1ccc2c(c1)-c1nnc(COc3cccc(F)c3)n1Cc1c(-c3noc(C(C)C)n3)ncn1-2 [Compound 179],< 100
2,COc1ccc2c(c1)-n1nnc(COc3ccc(F)cc3)c1Cc1c(-c3noc(C)n3)ncn1-2 [Compound 180],< 100
3,COc1ccc2c(c1)-n1nnc(COc3ccccc3F)c1Cc1c(-c3noc(C)n3)ncn1-2 [Compound 181],< 100
4,COc1ccc2c(c1)-n1nnc(COc3ccccc3)c1Cc1c(-c3noc(C)n3)ncn1-2 [Compound 182],< 100
5,COc1ccc2c(c1)-c1nnc(COCc3cccc(F)c3)n1Cc1c(-c3noc(C(C)C)n3)ncn1-2 [Compound 183],< 100
6,COc1ccc2c(c1)-c1nnc(COCc3ccccc3F)n1Cc1c(-c3noc(C(C)C)n3)ncn1-2 [Compound 184],< 100
7,CC(C)c1nc(-c2ncn3c2Cn2c(COc4cccnc4)nnc2-c2cc(F)ccc2-3)no1 [Compound 185],< 100
8,COCc1nnc2n1Cc1c(-c3noc(C(C)C)n3)ncn1-c1ccc(F)cc1-2 [Compound 186],< 100
9,CCOCc1nnc2n1Cc1c(-c3noc(C(C)C)n3)ncn1-c1ccc(F)cc1-2 [Compound 187],< 100
10,CC(C)c1nc(-c2ncn3c2Cn2c(COc4cccc(F)c4)nnc2-c2cc(F)ccc2-3)no1 [Compound 188],< 100
11,CC(C)c1nc(-c2ncn3c2Cn2c(COc4ccc(F)cc4)nnc2-c2cc(F)ccc2-3)no1 [Compound 189],< 100
12,Cc1cccc(C)c1OCc1nnc2n1Cc1c(-c3noc(C(C)C)n3)ncn1-c1ccc(F)cc1-2 [Compound 190],< 100
13,COc1ccc2c(c1)-c1nnc(COc3ccc(F)cc3)n1Cc1c(C#N)ncn1-2 [Compound 191],100 to 1000
14,CCc1nc(-c2ncn3c2Cc2c(Cc4ccccc4)nnn2-c2cc(OC)ccc2-3)no1 [Compound 194],< 100
15,CCc1nc(-c2ncn3c2Cc2c(Cc4ccc(F)cc4)nnn2-c2cc(OC)ccc2-3)no1 [Compound 195],< 100
16,COc1ccc2c(c1)-c1nnc(COc3cccc(F)c3)n1Cc1c(C#N)ncn1-2 [Compound 196],< 100
17,N#Cc1ncn2c1Cn1c(COc3ccccc3)nnc1-c1cc(Cl)ccc1-2 [Compound 197],< 100
18,COCc1nnc2n1Cc1c(-c3nc(C)no3)ncn1-c1ccc(Cl)cc1-2 [Compound 198],< 100
19,FC(F)=Cc1ncn2c1Cn1c(COc3ccccc3)nnc1-c1cc(Cl)ccc1-2 [Compound 199],< 100
20,FC(F)c1ncn2c1Cn1c(COc3ccccc3)nnc1-c1cc(Cl)ccc1-2 [Compound 200],100 to 1000
21,COc1ccc2c(c1)-c1nnc(COC(C)(C)C)n1Cc1c(-c3noc(C(C)C)n3)ncn1-2 [Compound 201],100 to 1000
22,Clc1ccc2c(c1)-c1nnc(COc3ccccc3)n1Cc1c(Br)ncn1-2 [Compound 202],< 100
23,COc1ccc2c(c1)-c1nnc(COCc3cccnc3)n1Cc1c(-c3noc(C(C)C)n3)ncn1-2 [Compound 203],< 100
24,C#Cc1ncn2c1Cn1c(COc3ccccc3)nnc1-c1cc(Cl)ccc1-2 [Compound 205],< 100
25,COCc1nnc2n1Cc1c(-c3nc(C(C)C)no3)ncn1-c1ccc(Cl)cc1-2 [Compound 206],< 100
26,COc1ccc2c(c1)-n1nnc(Cc3ccccc3)c1Cc1c(C#N)ncn1-2 [Compound 207],< 100
27,COc1ccc2c(c1)-n1nnc(Cc3ccccc3Cl)c1Cc1c(C#N)ncn1-2 [Compound 208],< 100
